Bridge positions count the residues as written; N and C are the ends. Square brackets hold non-standard residues; d marks the D form. Peptide text beside a SMILES is read from it. * marks the point of attachment. Trp(1-CH2COOH) = N[C@@H](Cc1cn(CC(=O)O)c2ccccc12)C(=O)O; CH2CON(CH2CH2)2NCH2COOH = O=C(O)CN1CCN(C(=O)C*)CC1; NMePhe(4-COOH) = CN[C@@H](Cc1ccc(C(=O)O)cc1)C(=O)O; Nle(6-morpholino) = N[C@@H](CCCCN1CCOCC1)C(=O)O; Phe(3-COOH) = N[C@@H](Cc1cccc(C(=O)O)c1)C(=O)O; Trp(7-aza) = N[C@@H](Cc1c[nH]c2ncccc12)C(=O)O; NH(CH2CH2O)8Me = COCCOCCOCCOCCOCCOCCOCCOCCN*; NMePhe(3-Cl) = CN[C@@H](Cc1cccc(Cl)c1)C(=O)O; 3Pal(6-NH2) = Nc1ccc(C[C@H](N)C(=O)O)cn1; NMeW = CN[C@@H](Cc1c[nH]c2ccccc12)C(=O)O; NMeY = CN[C@@H](Cc1ccc(O)cc1)C(=O)O; Nva(3-Et) = CCC(CC)[C@H](N)C(=O)O; 4Pal = N[C@@H](Cc1ccncc1)C(=O)O; PEG4 = NCCOCCOCCOCCOCCC(=O)O; Carboxymethyl = O=C(O)C*
Columns and labels:
[1] = biological target: T1, human transferrin receptor (hTfR) (Homo sapiens, UniProt P02786); assay: SPR measurement under pH 7.4 conditions (Biacore T200, CM3 chip, hTfR captured by His Tag antibody); type: binding; conditions: pH 7.4, single-cycle kinetics; read-out: hTfR SPR pH7.4 KD
T1 sequence (P02786 whole entry): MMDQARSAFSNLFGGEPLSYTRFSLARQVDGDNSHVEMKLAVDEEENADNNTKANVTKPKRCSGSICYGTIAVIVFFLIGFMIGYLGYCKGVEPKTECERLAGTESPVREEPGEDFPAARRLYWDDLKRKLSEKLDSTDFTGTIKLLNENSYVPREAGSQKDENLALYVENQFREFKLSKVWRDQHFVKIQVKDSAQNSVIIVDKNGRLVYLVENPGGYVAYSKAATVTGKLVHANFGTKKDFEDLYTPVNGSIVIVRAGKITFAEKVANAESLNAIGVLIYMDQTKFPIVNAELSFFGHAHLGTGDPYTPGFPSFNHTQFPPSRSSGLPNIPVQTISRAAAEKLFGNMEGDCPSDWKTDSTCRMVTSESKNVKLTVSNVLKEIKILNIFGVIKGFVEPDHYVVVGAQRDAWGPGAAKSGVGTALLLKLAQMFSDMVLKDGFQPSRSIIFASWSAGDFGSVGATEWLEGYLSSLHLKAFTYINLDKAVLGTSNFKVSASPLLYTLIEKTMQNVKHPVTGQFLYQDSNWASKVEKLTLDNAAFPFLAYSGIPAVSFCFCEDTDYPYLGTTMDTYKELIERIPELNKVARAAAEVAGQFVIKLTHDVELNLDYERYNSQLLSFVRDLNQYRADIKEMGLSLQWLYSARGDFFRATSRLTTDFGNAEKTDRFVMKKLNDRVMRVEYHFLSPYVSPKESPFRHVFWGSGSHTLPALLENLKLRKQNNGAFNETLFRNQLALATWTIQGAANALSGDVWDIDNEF

[2] = biological target: T1, human transferrin receptor (hTfR); assay: SPR measurement under pH 6.0 conditions (Biacore T200, NTA chip, immobilized hTfR); type: binding; conditions: pH 6.0, single-cycle kinetics; read-out: hTfR SPR pH6.0 KD

Row | SMILES | Kd [1] [nM] | Kd [2] [nM]
1 | CCC(CC)[C@@H]1NC(=O)[C@H](Cc2ccc(OCC(=O)O)cc2)NC(=O)[C@H](Cc2ccc(N)nc2)NC(=O)[C@H](CC(N)=O)NC(=O)[C@H](Cc2cn(CC(=O)O)c3ccccc23)NC(=O)[C@H](C(C)C)NC(=O)[C@H](Cc2cccc(Cl)c2)N(C)C(=O)[C@H](C(C)C)NC(=O)[C@H](C)NC(=O)CSC[C@@H](C(=O)NCCOCCOCCOCCOCCC(N)=O)NC(=O)[C@H](Cc2ccc(C(=O)O)cc2)N(C)C(=O)[C@H](Cc2ccncc2)NC(=O)[C@H](CCCCN2CCOCC2)NC(=O)[C@H](CCC(N)=O)NC(=O)[C@H]([C@@H](C)CC)NC1=O [compound 49] ({CH2CO}-AV[NMePhe(3-Cl)]V[Trp(1-CH2COOH)]N[3Pal(6-NH2)]Y(Carboxymethyl)[Nva(3-Et)]IQ[Nle(6-morpholino)][4Pal][NMePhe(4-COOH)]C[PEG4]-NH2; thioether N-15) | 15800 | 576
2 | CCC(CC)[C@@H]1NC(=O)[C@H](Cc2ccc(OCC(=O)O)cc2)NC(=O)[C@H](Cc2ccc(N)nc2)NC(=O)[C@H](CC(N)=O)NC(=O)[C@H](Cc2cn(CC(=O)O)c3ccccc23)NC(=O)[C@H](C(C)C)NC(=O)[C@H](Cc2cccc(Cl)c2)N(C)C(=O)[C@H](C(C)C)NC(=O)[C@H](C)NC(=O)CSC[C@@H](C(=O)NCCOCCOCCOCCOCCC(N)=O)NC(=O)[C@H](Cc2ccc(C(=O)O)cc2)N(C)C(=O)[C@H](Cc2ccncc2)NC(=O)[C@H](CCCNC(=N)N)NC(=O)[C@H](CCC(=O)NCCOCCOCCOCCOCCOCCOCCOCCOC)NC(=O)[C@H]([C@@H](C)CC)NC1=O [compound 50] ({CH2CO}-AV[NMePhe(3-Cl)]V[Trp(1-CH2COOH)]N[3Pal(6-NH2)]Y(Carboxymethyl)[Nva(3-Et)]IE(NH(CH2CH2O)8Me)R[4Pal][NMePhe(4-COOH)]C[PEG4]-NH2; thioether N-15) | 6500 | 1780
3 | CC[C@H](C)[C@@H]1NC(=O)[C@H](Cc2ccc(OCC(=O)N3CCN(CC(=O)O)CC3)cc2)NC(=O)[C@H](Cc2ccc(N)nc2)NC(=O)[C@H](CC(N)=O)NC(=O)[C@H](Cc2cn(CC(=O)O)c3ccccc23)NC(=O)[C@H](C(C)C)NC(=O)[C@H](Cc2cccc(Cl)c2)N(C)C(=O)[C@H](C(C)C)NC(=O)[C@H](C)NC(=O)CSC[C@@H](C(=O)NCCOCCOCCOCCOCCC(N)=O)NC(=O)[C@H](Cc2ccc(C(=O)O)cc2)N(C)C(=O)[C@H](Cc2cccc(C(=O)O)c2)NC(=O)[C@H](CCCCN2CCOCC2)NC(=O)[C@H](CCC(N)=O)NC(=O)[C@H]([C@@H](C)CC)NC1=O [compound 51] ({CH2CO}-AV[NMePhe(3-Cl)]V[Trp(1-CH2COOH)]N[3Pal(6-NH2)]Y(CH2CON(CH2CH2)2NCH2COOH)IIQ[Nle(6-morpholino)][Phe(3-COOH)][NMePhe(4-COOH)]C[PEG4]-NH2; thioether N-15) | 1560 | 692
4 | CCC(CC)[C@@H]1NC(=O)[C@H](Cc2ccc(OCC(=O)N3CCN(CC(=O)O)CC3)cc2)NC(=O)[C@H](Cc2ccc(N)nc2)NC(=O)[C@H](CC(N)=O)NC(=O)[C@H](Cc2cn(CC(=O)O)c3ccccc23)NC(=O)[C@H](C(C)C)NC(=O)[C@H](Cc2cccc(Cl)c2)N(C)C(=O)[C@H](C(C)C)NC(=O)[C@H](C)NC(=O)CSC[C@@H](C(=O)NCCOCCOCCOCCOCCC(N)=O)NC(=O)[C@H](Cc2ccc(O)cc2)N(C)C(=O)[C@H](Cc2cccc(C(=O)O)c2)NC(=O)[C@H](CCCCN2CCOCC2)NC(=O)[C@H](CCC(N)=O)NC(=O)[C@H]([C@@H](C)CC)NC1=O [compound 52] ({CH2CO}-AV[NMePhe(3-Cl)]V[Trp(1-CH2COOH)]N[3Pal(6-NH2)]Y(CH2CON(CH2CH2)2NCH2COOH)[Nva(3-Et)]IQ[Nle(6-morpholino)][Phe(3-COOH)][NMeY]C[PEG4]-NH2; thioether N-15) | 5820 | 626
5 | CCC(CC)[C@@H]1NC(=O)[C@H](Cc2ccc(OC)cc2)NC(=O)[C@H](Cc2ccc(O)cc2)NC(=O)[C@H](CC(N)=O)NC(=O)[C@H](Cc2c[nH]c3ncccc23)NC(=O)[C@H](C(C)C)NC(=O)[C@H](Cc2cccc(Cl)c2)N(C)C(=O)[C@H](C(C)C)NC(=O)[C@H](C)NC(=O)CSC[C@@H](C(=O)NCCOCCOCCOCCOCCC(N)=O)NC(=O)[C@H](Cc2ccc(O)cc2)N(C)C(=O)[C@H](Cc2ccncc2)NC(=O)[C@H](CCCNC(=N)N)NC(=O)[C@H](CCCCN2CCOCC2)NC(=O)[C@H]([C@@H](C)CC)NC1=O [compound 54] ({CH2CO}-AV[NMePhe(3-Cl)]V[Trp(7-aza)]NYY(Me)[Nva(3-Et)]I[Nle(6-morpholino)]R[4Pal][NMeY]C[PEG4]-NH2; thioether N-15) | 1.38 | 9.2
6 | CCC(CC)[C@@H]1NC(=O)[C@H](Cc2ccc(OCC(=O)N3CCN(CC(=O)O)CC3)cc2)NC(=O)[C@H](Cc2ccc(O)cc2)NC(=O)[C@H](CC(N)=O)NC(=O)[C@H](Cc2cn(CC(=O)O)c3ccccc23)NC(=O)[C@H](C(C)C)NC(=O)[C@H](Cc2cccc(Cl)c2)N(C)C(=O)[C@H](C(C)C)NC(=O)[C@H](C)NC(=O)CSC[C@@H](C(=O)NCCOCCOCCOCCOCCC(N)=O)NC(=O)[C@H](Cc2ccc(C(=O)O)cc2)N(C)C(=O)[C@H](Cc2cccc(C(=O)O)c2)NC(=O)[C@H](CCCCN2CCOCC2)NC(=O)[C@H](CCCCN2CCOCC2)NC(=O)[C@H]([C@@H](C)CC)NC1=O [compound 55] ({CH2CO}-AV[NMePhe(3-Cl)]V[Trp(1-CH2COOH)]NYY(CH2CON(CH2CH2)2NCH2COOH)[Nva(3-Et)]I[Nle(6-morpholino)][Nle(6-morpholino)][Phe(3-COOH)][NMePhe(4-COOH)]C[PEG4]-NH2; thioether N-15) | 26.4 | 38.5
7 | CCC(CC)[C@@H]1NC(=O)[C@H](Cc2ccc(OCC(=O)N3CCN(CC(=O)O)CC3)cc2)NC(=O)[C@H](Cc2ccc(O)cc2)NC(=O)[C@H](CC(N)=O)NC(=O)[C@H](Cc2cn(CC(=O)O)c3ccccc23)NC(=O)[C@H](C(C)C)NC(=O)[C@H](Cc2cccc(Cl)c2)N(C)C(=O)[C@H](C(C)C)NC(=O)[C@H](C)NC(=O)CSC[C@@H](C(=O)NCCOCCOCCOCCOCCC(N)=O)NC(=O)[C@H](Cc2ccc(C(=O)O)cc2)N(C)C(=O)[C@H](Cc2ccncc2)NC(=O)[C@H](CCCCN2CCOCC2)NC(=O)[C@H](CCCCN2CCOCC2)NC(=O)[C@H]([C@@H](C)CC)NC1=O [compound 56] ({CH2CO}-AV[NMePhe(3-Cl)]V[Trp(1-CH2COOH)]NYY(CH2CON(CH2CH2)2NCH2COOH)[Nva(3-Et)]I[Nle(6-morpholino)][Nle(6-morpholino)][4Pal][NMePhe(4-COOH)]C[PEG4]-NH2; thioether N-15) | 12.6 | 72
8 | CC[C@H](C)[C@@H]1NC(=O)[C@H](Cc2ccc(OC)cc2)NC(=O)[C@H](Cc2ccc(N)nc2)NC(=O)[C@H](CC(N)=O)NC(=O)[C@H](Cc2c[nH]c3ccccc23)NC(=O)[C@H](C(C)C)NC(=O)[C@H](Cc2cccc(Cl)c2)N(C)C(=O)[C@H](C(C)C)NC(=O)[C@H](C)NC(=O)CSC[C@@H](C(=O)NCCOCCOCCOCCOCCC(N)=O)NC(=O)[C@H](Cc2ccc(O)cc2)N(C)C(=O)[C@H](Cc2ccncc2)NC(=O)[C@H](CCCNC(=N)N)NC(=O)[C@H](CCCCN)NC(=O)[C@H]([C@@H](C)CC)NC1=O [compound 57] ({CH2CO}-AV[NMePhe(3-Cl)]VWN[3Pal(6-NH2)]Y(Me)IIKR[4Pal][NMeY]C[PEG4]-NH2; thioether N-15) | 0.971 | 5.4

Other lines, results leading:

Row | Kd [1] [nM] | Kd [2] [nM] | SMILES
9 | 1.34 | 5.39 | CC[C@H](C)[C@@H]1NC(=O)[C@H](Cc2ccc(OC)cc2)NC(=O)[C@H](Cc2ccc(N)nc2)NC(=O)[C@H](CC(N)=O)NC(=O)[C@H](Cc2c[nH]c3ccccc23)N(C)C(=O)[C@H](C(C)C)NC(=O)[C@H](Cc2cccc(Cl)c2)N(C)C(=O)[C@H](C(C)C)NC(=O)[C@H](C)NC(=O)CSC[C@@H](C(=O)NCCOCCOCCOCCOCCC(N)=O)NC(=O)[C@H](Cc2ccc(O)cc2)N(C)C(=O)[C@H](Cc2ccncc2)NC(=O)[C@H](CCCNC(=N)N)NC(=O)[C@H](CCCCN)NC(=O)[C@H]([C@@H](C)CC)NC1=O [compound 58] ({CH2CO}-AV[NMePhe(3-Cl)]V[NMeW]N[3Pal(6-NH2)]Y(Me)IIKR[4Pal][NMeY]C[PEG4]-NH2; thioether N-15)
10 | 1.46 | 9.57 | CC[C@H](C)[C@@H]1NC(=O)[C@H](Cc2ccc(OC)cc2)NC(=O)[C@H](Cc2ccc(N)nc2)NC(=O)[C@H](CC(N)=O)NC(=O)[C@H](Cc2c[nH]c3ccccc23)NC(=O)[C@H](C(C)C)NC(=O)[C@H](Cc2cccc(Cl)c2)N(C)C(=O)[C@H](C(C)C)NC(=O)[C@H](C)NC(=O)CSC[C@@H](C(=O)NCCOCCOCCOCCOCCC(N)=O)NC(=O)[C@H](Cc2ccc(C(=O)O)cc2)N(C)C(=O)[C@H](Cc2ccncc2)NC(=O)[C@H](CCCNC(=N)N)NC(=O)[C@H](CCCCN)NC(=O)[C@H]([C@@H](C)CC)NC1=O [compound 59] ({CH2CO}-AV[NMePhe(3-Cl)]VWN[3Pal(6-NH2)]Y(Me)IIKR[4Pal][NMePhe(4-COOH)]C[PEG4]-NH2; thioether N-15)
11 | 0.755 | 4.71 | CC[C@H](C)[C@@H]1NC(=O)[C@H](Cc2ccc(OC)cc2)NC(=O)[C@H](Cc2ccc(N)nc2)NC(=O)[C@H](CC(N)=O)NC(=O)[C@H](Cc2c[nH]c3ccccc23)N(C)C(=O)[C@H](C(C)C)NC(=O)[C@H](Cc2cccc(Cl)c2)N(C)C(=O)[C@H](C(C)C)NC(=O)[C@H](C)NC(=O)CSC[C@@H](C(=O)NCCOCCOCCOCCOCCC(N)=O)NC(=O)[C@H](Cc2ccc(C(=O)O)cc2)N(C)C(=O)[C@H](Cc2ccncc2)NC(=O)[C@H](CCCNC(=N)N)NC(=O)[C@H](CCCCN)NC(=O)[C@H]([C@@H](C)CC)NC1=O [compound 60] ({CH2CO}-AV[NMePhe(3-Cl)]V[NMeW]N[3Pal(6-NH2)]Y(Me)IIKR[4Pal][NMePhe(4-COOH)]C[PEG4]-NH2; thioether N-15)
12 | 28.5 | 92.1 | CC[C@H](C)[C@@H]1NC(=O)[C@H](Cc2ccc(OCC(=O)O)cc2)NC(=O)[C@H](Cc2ccc(O)cc2)NC(=O)[C@H](CC(N)=O)NC(=O)[C@H](Cc2c[nH]c3ncccc23)NC(=O)[C@H](C(C)C)NC(=O)[C@H](Cc2cccc(Cl)c2)N(C)C(=O)[C@H](C(C)C)NC(=O)[C@H](C)NC(=O)CSC[C@@H](C(=O)NCCOCCOCCOCCOCCC(N)=O)NC(=O)[C@H](Cc2ccc(O)cc2)N(C)C(=O)[C@H](Cc2ccncc2)NC(=O)[C@H](CCCNC(=N)N)NC(=O)[C@H](CCC(=O)NCCOCCOCCOCCOCCOCCOCCOCCOCCC(=O)O)NC(=O)[C@H]([C@@H](C)CC)NC1=O [compound 62]

Source: EP4667483A1, “HUMAN TRANSFERRIN RECEPTOR-BINDING PEPTIDE” (JCR Pharmaceuticals Co., Ltd., priority 2023, dated 2024)
